Laboratory results taken from PMC10488055, “Investigation of Potential cGMP-Specific PDE V and Aminopeptidase N Inhibitors of Allium ampeloprasum L. and Its Bioactive Components: Kinetic and Molecular Docking Studies” (International Journal of Molecular Sciences, 2023).
Where two headings read alike, the source gives them in different places.

Experiments:
Assay type in all cases: biochemical
aminopeptidase N (APN) = target: T1, aminopeptidase N (APN) (Homo sapiens, UniProt P15144); test: Aminopeptidase N (APN) enzyme activity assay with L-p-NA substrate; conditions: for inhibition of APN in in vitro enzyme assay: at the highest concentration; for enzymatic activity of APN: treatment with 10 mM, without sample 0.38 U
T1 construct: purchased Sigma-Aldrich
T1 sequence (P15144 whole entry, species assumed): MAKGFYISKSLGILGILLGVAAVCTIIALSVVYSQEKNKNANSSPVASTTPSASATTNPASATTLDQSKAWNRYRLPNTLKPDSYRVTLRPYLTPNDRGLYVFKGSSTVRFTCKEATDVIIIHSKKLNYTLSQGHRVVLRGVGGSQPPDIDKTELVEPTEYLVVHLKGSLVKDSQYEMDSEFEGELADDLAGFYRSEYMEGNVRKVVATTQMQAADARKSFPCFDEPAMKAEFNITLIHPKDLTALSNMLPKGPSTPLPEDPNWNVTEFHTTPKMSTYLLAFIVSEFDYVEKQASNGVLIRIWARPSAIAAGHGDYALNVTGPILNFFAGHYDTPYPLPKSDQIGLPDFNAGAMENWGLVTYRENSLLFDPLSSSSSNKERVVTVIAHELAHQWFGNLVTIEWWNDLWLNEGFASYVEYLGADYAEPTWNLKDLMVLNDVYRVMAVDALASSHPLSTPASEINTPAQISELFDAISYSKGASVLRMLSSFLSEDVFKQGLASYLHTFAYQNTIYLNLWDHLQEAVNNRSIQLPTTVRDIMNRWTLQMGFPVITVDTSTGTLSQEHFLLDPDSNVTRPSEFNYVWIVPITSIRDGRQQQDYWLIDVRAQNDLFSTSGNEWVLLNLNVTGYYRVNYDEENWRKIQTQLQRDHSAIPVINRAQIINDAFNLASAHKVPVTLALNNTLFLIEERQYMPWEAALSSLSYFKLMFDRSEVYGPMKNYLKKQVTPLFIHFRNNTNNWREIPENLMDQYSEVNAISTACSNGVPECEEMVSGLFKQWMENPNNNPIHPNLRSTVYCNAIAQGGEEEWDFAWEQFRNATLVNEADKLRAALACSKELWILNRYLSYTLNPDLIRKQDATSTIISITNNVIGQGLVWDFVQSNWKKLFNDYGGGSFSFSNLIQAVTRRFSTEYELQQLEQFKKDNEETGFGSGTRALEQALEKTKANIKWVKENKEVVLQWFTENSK
Experimental: Figure 2 Effects of AAE and AAE-derived compounds on APN activity. […] The reaction was started by adding 20 μL enzyme solution (1 mU) and incubated for 60 min at 37 °C. The absorbance of samples were measured at 405 nm to determine the formation of p-nitroaniline. Each value is the mean ± SD of triplicate measurements. * p < 0.05 and ** p < 0.01, compared to each control group (Con). Con, control group treated enzyme only.
The activity of APN was determined according to Melzig et al.. Briefly, the enzyme substrate L-p-NA (2 mM) was dissolved in 50 mM N-(2-hydroxyethyl)piperazine-N’-2ethansulfonic acid (HEPES) buffer (pH 7.4) containing 154 mM NaCl. […] The reaction was started by adding 20 μL enzyme solution (approximately 1 mU in HEPES-buffer) and incubated for 60 min at 37 °C. The samples were measured spectrophotometrically at 405 nm to determine the formation of p-nitroanilmne. APN inhibitory activity (%) = ([Absorbance control without sample − Absorbance control with sample]/Absorbance control without sample) × 100

PDE5 = PDE5 (Homo sapiens, UniProt O76074); test: Kinetic assay (Lineweaver–Burk) on PDE5; design: Vmax / Kcat: unit of the concentration uncertain; conditions: for inhibition type against PDE5: from changes of Km and 1/Vmax (Lineweaver–Burk), putative decision system [27];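 for Kcat: pure compound doses in mM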
Experimental: (§1) Lineweaver–Burk plots were employed to analyze the inhibition of the target enzyme. These plots were represented as 1/velocity (1/V) versus 1/substrate concentration (1/[S]) in the presence or absence of each sample (non-treated (black circle), 10 μg or 1 mM (orange circle), 20 μg or 2 mM (silver circle), 50 μg or 5 mM (yellow circle), and 100 μg or 10 mM (blue circle)) as an inhibitor against PDE5.
(§2) These reactions were conducted in a total volume of 80 μL. by a previously described method. The Michaelis–Menten constant (Km) and maximal velocity (Vmax) were calculated using the x and y intercepts, respectively. […] Additionally, the Kik and Kiv inhibition constants were calculated using previously described methods.

APN = target: T2, APN (Homo sapiens, UniProt P15144); test: Kinetic assay (Lineweaver–Burk) on APN; conditions: for Ki: APN; for inhibition type against APN: from Kik/Kiv ratio, new decision system [27]
T2 construct: purchased Sigma-Aldrich
T2 sequence (P15144 whole entry, species assumed): as above
Experimental: as §1, with “(1/(S))” for “(1/[S])”, “(blue” for “(orange”, “(green” for “(silver”, “(orange” for “(yellow”, “(purple” for “(blue”, “APN.” for “PDE5.”
as §2

[1] = PDE5 treated with compound 1 (unit uncertain)
[2] = PDE5 treated with compound 2 (unit uncertain)
[3] = PDE5 treated with compound 5 (unit uncertain)
[4] = PDE5 treated with compound 10 (unit uncertain)
[5] = APN treated with compound 10 mM

Structure (SMILES)	IC50 (aminopeptidase N (APN))	inhibition of APN in in vitro enzyme assay (aminopeptidase N (APN))	enzymatic activity of APN (aminopeptidase N (APN))	Kcat (PDE5; [1])	Vmax (PDE5; [1])	Kcat (PDE5; [2])	Vmax (PDE5; [2])	Kcat (PDE5; [3])	Vmax (PDE5; [3])	Kcat (PDE5; [4])	Vmax (PDE5; [4])	inhibition type against PDE5 (PDE5)	Kcat (APN; APN treated with compound 1 mM)	Vmax (APN; APN treated with compound 1 mM)	Kcat (APN; APN treated with compound 2 mM)	Vmax (APN; APN treated with compound 2 mM)	Kcat (APN; APN treated with compound 5 mM)	Vmax (APN; APN treated with compound 5 mM)	Kcat (APN; [5])	Vmax (APN; [5])	other results
C=CCSSCC=C [DADS, diallyl disulfide]	> 10 mM	11%	0.34 ± 0.02 U	7253 ± 189 k s^−1	0.959 ± 0.025 mU/min	6625 ± 159 k s^−1	0.876 ± 0.021 mU/min	5905 ± 83 k s^−1	0.781 ± 0.011 mU/min	4383 ± 76 k s^−1	0.580 ± 0.010 mU/min	noncompetitive-type	394.8 ± 3.7 s⁻¹	0.318 ± 0.003 mU/min	379.5 ± 7.4 s⁻¹	0.306 ± 0.006 mU/min	368.8 ± 6.2 s⁻¹	0.297 ± 0.005 mU/min	364.9 ± 5.0 s⁻¹	0.294 ± 0.004 mU/min	Kik/Kiv (PDE5; PDE5, ratio according to Yang et al. [27]): 16.0; Vmax value of PDE5, fold of non-treated group (PDE5; highest concentration, non-treated 1.039 mU/min = 1.0-fold): 0.56 fold; Ki (APN; read-out: Ki): 65.7 mM; inhibition type against APN (APN): uncompetitive-type; Vmax value of APN, fold of non-treated group (APN; highest concentration, non-treated 0.316 mU/min = 1.0-fold): 0.93 fold
O=c1c(O)c(-c2ccc(O)cc2)oc2cc(O)cc(O)c12 [KAE, kaempferol]	> 10 mM	29%	0.27 ± 0.01 U	5076 ± 98 k s^−1	0.671 ± 0.013 mU/min	4591 ± 76 k s^−1	0.607 ± 0.010 mU/min	2390 ± 121 k s^−1	0.316 ± 0.016 mU/min	1228 ± 69 k s^−1	0.162 ± 0.009 mU/min	uncompetitive-type	396.3 ± 7.5 s⁻¹	0.319 ± 0.006 mU/min	352.8 ± 7.4 s⁻¹	0.284 ± 0.006 mU/min	308.0 ± 5.0 s⁻¹	0.248 ± 0.004 mU/min	268.5 ± 3.7 s⁻¹	0.216 ± 0.003 mU/min	Ki (APN; calculated by method of ref 27, read-out: Kik): 42.1 mM; Ki (APN; calculated by method of ref 27, read-out: Kiv): 21.7 mM; Ki (APN; read-out: Ki): 11.9 mM; inhibition type against APN (APN): uncompetitive-type
